Holding throughout (conditions): Compound concentration 10.0 uM
Test [1] addresses AMP-activated protein kinase (AMPK) alpha-1/beta-1/gamma-1 (Homo sapiens) (UniProt P54619+Q9Y478+Q13131).
The target in test [2] is Serine/threonine-protein kinase PAK 4 (Homo sapiens) (UniProt O96013).
Test [3] concerns the target Epidermal growth factor receptor (Homo sapiens) (UniProt P00533).
Test [4] deals with Rho-associated protein kinase 1 (Homo sapiens) (UniProt Q13464).
In test [5] the target is Mitogen-activated protein kinase 8 (Homo sapiens) (UniProt P45983).
For test [6], the target named is Serine/threonine-protein kinase mTOR (Homo sapiens) (UniProt P42345).
The target in test [7] is Ribosomal protein S6 kinase alpha-3 (Homo sapiens) (UniProt P51812).
For test [8], the target named is T1, Aurora kinase A (Homo sapiens) (UniProt O14965).
T1 sequence (whole entry): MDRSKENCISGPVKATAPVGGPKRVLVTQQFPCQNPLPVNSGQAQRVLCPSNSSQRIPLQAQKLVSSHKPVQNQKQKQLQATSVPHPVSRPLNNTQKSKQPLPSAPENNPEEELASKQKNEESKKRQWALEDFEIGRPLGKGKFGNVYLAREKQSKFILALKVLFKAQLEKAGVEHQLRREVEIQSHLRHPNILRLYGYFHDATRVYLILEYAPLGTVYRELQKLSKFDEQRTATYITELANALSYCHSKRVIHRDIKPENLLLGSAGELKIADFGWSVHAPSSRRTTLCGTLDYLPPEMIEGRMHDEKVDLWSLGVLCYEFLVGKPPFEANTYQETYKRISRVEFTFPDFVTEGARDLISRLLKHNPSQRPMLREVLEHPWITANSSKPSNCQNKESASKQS

For test [9], the target named is Tyrosine-protein kinase Lck (Homo sapiens) (UniProt P06239).
Tyrosine-protein kinase Lck (Homo sapiens), sequence (P06239 2-509 limits assumed): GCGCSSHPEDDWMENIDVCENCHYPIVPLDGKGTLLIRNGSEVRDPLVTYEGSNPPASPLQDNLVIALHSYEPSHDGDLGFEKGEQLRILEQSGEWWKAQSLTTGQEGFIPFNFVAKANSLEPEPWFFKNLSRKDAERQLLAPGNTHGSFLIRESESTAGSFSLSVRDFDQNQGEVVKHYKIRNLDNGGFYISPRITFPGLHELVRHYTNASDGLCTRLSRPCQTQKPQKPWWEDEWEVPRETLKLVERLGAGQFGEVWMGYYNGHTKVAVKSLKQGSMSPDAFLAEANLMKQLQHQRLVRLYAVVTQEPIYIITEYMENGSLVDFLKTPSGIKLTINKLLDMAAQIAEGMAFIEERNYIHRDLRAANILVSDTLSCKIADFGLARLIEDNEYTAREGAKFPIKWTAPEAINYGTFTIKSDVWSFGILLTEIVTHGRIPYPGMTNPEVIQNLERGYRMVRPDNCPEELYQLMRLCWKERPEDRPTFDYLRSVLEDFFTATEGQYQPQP
The target in test [10] is Receptor-type tyrosine-protein kinase FLT3 (Homo sapiens) (UniProt P36888).
The target in test [11] is MAP kinase-activated protein kinase 2 (Homo sapiens) (UniProt P49137).
MAP kinase-activated protein kinase 2 (Homo sapiens), sequence (P49137 whole entry, looked up): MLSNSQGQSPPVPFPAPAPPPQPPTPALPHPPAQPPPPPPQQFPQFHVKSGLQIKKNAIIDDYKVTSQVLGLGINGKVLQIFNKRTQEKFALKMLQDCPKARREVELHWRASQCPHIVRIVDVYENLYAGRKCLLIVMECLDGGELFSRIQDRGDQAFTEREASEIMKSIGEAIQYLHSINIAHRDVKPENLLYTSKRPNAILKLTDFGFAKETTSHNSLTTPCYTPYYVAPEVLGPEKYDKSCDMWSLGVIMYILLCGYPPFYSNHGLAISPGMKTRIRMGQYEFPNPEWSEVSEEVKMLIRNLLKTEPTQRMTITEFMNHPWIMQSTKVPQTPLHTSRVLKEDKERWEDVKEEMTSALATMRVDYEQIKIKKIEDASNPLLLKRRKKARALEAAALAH
Test [12] addresses Dual specificity tyrosine-phosphorylation-regulated kinase 3 (Homo sapiens) (UniProt O43781).
Test [13] concerns the target Receptor tyrosine-protein kinase erbB-2 (Homo sapiens) (UniProt P04626).
Test [14] has as its target PI3-kinase p110-alpha/p85-alpha (Homo sapiens) (UniProt P27986+P42336).
The target of test [15] is Mitogen-activated protein kinase 1 (Homo sapiens) (UniProt P28482).
Mitogen-activated protein kinase 1 (Homo sapiens), sequence (P28482 whole entry): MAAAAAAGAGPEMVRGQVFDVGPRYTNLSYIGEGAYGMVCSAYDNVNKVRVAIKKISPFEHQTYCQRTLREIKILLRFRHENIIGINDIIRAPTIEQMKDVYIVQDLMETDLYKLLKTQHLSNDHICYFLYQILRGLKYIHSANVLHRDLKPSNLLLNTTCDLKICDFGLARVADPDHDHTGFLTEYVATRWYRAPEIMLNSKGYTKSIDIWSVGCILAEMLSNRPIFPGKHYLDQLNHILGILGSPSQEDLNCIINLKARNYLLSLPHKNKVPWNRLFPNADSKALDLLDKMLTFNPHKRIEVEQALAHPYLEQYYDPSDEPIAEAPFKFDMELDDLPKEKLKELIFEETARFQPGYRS
Test [16] has as its target Glycogen synthase kinase-3 beta (Homo sapiens) (UniProt P49841).
The target in test [17] is Casein kinase I isoform gamma-2 (Homo sapiens) (UniProt P78368).
Casein kinase I isoform gamma-2 (Homo sapiens), sequence (P78368 whole entry, looked up, canonical isoform): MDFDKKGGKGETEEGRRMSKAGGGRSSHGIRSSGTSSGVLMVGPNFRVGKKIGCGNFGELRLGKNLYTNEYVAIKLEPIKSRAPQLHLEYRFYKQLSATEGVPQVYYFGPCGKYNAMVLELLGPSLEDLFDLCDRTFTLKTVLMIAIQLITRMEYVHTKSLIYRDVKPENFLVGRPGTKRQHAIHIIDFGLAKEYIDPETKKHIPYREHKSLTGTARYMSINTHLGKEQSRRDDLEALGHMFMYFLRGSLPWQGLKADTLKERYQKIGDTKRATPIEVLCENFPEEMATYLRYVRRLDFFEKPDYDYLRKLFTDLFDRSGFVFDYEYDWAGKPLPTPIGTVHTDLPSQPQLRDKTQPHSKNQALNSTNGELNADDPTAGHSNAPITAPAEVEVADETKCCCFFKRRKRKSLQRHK
Test [18] deals with Cyclin-dependent kinase 2/cyclin A (Homo sapiens) (UniProt P24941+P20248+P78396).
In test [19] the target is Platelet-derived growth factor receptor beta (Homo sapiens) (UniProt P09619).
The target of test [20] is Proto-oncogene tyrosine-protein kinase Src (Homo sapiens) (UniProt P12931).
Test [21] addresses Tyrosine-protein kinase SYK (Homo sapiens) (UniProt P43405).
Test [22] addresses Angiopoietin-1 receptor (Homo sapiens) (UniProt Q02763).
Test [23] addresses RAC-alpha serine/threonine-protein kinase (Homo sapiens) (UniProt P31749).
The target in test [24] is Serine/threonine-protein kinase pim-1 (Homo sapiens) (UniProt P11309).
Serine/threonine-protein kinase pim-1 (Homo sapiens), sequence (P11309 whole entry, looked up): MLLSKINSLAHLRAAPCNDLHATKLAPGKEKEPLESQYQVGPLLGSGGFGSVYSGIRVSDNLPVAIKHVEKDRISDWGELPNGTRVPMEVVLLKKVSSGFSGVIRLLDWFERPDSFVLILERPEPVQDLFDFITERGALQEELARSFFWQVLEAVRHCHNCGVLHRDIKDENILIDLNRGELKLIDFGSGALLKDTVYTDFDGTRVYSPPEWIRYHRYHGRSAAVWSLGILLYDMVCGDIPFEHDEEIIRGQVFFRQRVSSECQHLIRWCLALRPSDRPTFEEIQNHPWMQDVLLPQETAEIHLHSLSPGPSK
Test [25] deals with High affinity nerve growth factor receptor (Homo sapiens) (UniProt P04629).
For test [26], the target named is T2, Activin receptor type-1B (Homo sapiens) (UniProt P36896).
T2 sequence (whole entry): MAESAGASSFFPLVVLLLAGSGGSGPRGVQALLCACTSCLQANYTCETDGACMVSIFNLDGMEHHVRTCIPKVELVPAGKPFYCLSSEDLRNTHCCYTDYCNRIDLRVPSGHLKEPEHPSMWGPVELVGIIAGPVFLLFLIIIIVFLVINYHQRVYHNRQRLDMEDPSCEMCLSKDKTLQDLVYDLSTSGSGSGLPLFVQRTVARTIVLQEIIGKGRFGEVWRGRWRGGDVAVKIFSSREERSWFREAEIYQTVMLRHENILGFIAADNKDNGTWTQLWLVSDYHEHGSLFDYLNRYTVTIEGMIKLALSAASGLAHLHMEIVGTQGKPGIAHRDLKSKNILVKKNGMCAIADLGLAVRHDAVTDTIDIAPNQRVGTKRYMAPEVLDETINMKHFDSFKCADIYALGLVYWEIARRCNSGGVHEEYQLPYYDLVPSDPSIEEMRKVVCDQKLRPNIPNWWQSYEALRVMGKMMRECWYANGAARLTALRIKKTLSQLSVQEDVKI

In test [27] the target is Rho-associated protein kinase 2 (Homo sapiens) (UniProt O75116).
Test [28] deals with Beta-1 adrenergic receptor (Homo sapiens) (UniProt P08588).
Beta-1 adrenergic receptor (Homo sapiens), sequence (P08588 whole entry, looked up): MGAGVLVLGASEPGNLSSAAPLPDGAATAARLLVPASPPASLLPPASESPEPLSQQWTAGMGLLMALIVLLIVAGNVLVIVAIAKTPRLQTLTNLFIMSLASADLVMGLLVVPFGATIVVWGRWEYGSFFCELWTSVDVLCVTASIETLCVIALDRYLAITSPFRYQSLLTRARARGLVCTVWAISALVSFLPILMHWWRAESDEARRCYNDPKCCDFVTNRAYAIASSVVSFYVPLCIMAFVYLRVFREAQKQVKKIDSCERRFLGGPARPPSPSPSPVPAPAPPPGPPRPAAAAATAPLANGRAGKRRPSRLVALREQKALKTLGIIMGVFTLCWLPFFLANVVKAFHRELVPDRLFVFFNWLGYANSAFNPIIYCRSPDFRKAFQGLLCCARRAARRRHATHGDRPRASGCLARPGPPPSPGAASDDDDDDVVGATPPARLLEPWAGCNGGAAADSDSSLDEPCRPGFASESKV
The target of test [29] is Histamine H2 receptor (Homo sapiens) (UniProt P25021).

The structures appear in SMILES notation.

Epidermal growth factor receptor (Homo sapiens), sequence (P00533 whole entry): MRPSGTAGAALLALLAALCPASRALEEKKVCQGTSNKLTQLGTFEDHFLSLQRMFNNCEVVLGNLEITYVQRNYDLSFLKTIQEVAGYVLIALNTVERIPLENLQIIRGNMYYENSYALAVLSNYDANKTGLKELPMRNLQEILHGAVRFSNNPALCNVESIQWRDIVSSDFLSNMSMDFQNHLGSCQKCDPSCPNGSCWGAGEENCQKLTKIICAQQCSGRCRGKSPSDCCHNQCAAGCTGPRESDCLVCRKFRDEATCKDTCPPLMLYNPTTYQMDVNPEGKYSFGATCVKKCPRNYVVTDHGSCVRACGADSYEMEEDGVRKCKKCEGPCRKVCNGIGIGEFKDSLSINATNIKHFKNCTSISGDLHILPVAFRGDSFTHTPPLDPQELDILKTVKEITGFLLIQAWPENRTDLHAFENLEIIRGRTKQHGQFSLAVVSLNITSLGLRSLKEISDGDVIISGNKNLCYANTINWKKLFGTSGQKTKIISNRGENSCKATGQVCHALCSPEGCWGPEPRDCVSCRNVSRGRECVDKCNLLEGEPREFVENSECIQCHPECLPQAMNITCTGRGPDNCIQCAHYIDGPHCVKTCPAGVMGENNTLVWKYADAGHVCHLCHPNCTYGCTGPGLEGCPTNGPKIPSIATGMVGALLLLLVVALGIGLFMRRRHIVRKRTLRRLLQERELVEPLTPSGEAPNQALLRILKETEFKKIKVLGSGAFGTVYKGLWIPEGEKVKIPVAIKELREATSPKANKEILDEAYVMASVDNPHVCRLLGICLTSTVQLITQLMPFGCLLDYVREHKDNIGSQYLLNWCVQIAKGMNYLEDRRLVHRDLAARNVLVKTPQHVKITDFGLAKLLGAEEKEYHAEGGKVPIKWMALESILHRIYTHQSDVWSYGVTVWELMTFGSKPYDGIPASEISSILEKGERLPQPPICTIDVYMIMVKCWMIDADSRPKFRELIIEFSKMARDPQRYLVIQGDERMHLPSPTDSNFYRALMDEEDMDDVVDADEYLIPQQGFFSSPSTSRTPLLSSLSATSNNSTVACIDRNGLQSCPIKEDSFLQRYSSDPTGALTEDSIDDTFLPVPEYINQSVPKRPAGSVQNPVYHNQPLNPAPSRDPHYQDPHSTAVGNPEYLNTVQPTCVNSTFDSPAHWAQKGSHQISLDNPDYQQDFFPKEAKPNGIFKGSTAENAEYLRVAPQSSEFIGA
Rho-associated protein kinase 1 (Homo sapiens), sequence (Q13464 2-1354 limits assumed): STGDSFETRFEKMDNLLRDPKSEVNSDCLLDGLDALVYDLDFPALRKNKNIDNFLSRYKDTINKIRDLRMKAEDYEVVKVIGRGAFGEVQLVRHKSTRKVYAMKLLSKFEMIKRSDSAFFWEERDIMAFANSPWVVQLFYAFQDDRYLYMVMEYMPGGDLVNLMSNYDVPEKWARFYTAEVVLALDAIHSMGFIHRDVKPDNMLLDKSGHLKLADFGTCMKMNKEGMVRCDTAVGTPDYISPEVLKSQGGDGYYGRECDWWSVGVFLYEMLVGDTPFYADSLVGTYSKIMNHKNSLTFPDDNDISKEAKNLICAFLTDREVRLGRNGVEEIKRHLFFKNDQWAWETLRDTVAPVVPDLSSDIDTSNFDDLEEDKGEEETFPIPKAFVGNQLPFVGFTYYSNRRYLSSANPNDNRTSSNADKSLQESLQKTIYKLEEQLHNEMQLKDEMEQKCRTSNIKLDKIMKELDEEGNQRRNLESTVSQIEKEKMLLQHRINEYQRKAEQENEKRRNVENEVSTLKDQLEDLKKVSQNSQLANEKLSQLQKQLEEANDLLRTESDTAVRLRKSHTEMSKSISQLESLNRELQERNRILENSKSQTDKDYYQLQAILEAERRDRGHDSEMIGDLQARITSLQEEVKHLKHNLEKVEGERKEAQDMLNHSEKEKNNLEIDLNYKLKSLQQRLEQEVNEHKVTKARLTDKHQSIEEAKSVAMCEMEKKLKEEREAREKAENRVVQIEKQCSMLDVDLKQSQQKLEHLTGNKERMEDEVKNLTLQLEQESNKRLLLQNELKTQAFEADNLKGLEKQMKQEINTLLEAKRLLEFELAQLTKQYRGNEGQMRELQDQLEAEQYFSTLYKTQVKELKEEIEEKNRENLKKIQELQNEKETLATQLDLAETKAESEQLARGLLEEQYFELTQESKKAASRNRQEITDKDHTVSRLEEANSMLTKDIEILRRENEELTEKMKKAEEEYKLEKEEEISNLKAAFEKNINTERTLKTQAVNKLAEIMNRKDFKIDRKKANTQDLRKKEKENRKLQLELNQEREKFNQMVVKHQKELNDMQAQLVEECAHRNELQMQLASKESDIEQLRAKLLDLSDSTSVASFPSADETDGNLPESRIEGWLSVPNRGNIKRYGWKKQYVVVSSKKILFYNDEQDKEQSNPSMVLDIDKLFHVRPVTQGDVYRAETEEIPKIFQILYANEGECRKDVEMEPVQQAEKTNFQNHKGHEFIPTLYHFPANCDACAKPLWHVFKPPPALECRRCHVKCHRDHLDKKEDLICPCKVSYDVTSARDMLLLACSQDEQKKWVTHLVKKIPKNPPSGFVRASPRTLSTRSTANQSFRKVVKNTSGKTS

Regarding `CCOC(=O)c1cc2cc(-c3cc(C(=O)NCc4ccc(C(=O)O)cc4)nn3C)ccc2[nH]1` [BI 4394], the residual activity is 8% in test [1]; 75% in test [2]; 99% in [3]; 97% in test [4]; 87% in test [5]; 78% in test [6]. Also, the residual activity in test [7] was 5%; in test [8], -1%; in [9], 68%; in [10], 64%; in [11], 1%; in [12] it was 28%. Moreover, the residual activity in test [13] is 87%; in test [14] it was 133%; in test [15], 84%; in test [16] it was 6%; in [17], 61%; in [18], 93%. The residual activity in [19] was 96%; in test [20], 25%; in test [21] it was 56%; in test [22] it was 85%; in test [23], 24%; in test [24], 14%. The values for the residual activity in [25], in test [26] and in test [27] were 190%, 100% and 56%, respectively. Moreover, the inhibition in [28] is -5.04%.

As for `Cn1nc(C(=O)NCc2ccc(C(=O)O)cc2)cc1-c1ccc2[nH]ccc2c1` [BI 4395], in [29], the inhibition is 8.57%.

One may read the inhibition as the change of the read-out against control, counted positive when it falls.

(Values after ChEMBL document CHEMBL4507281, “Data for DCP probe BI-4394” (2021).)
